Where only a bound is given, the exact number is not on record here.

One experiment deals with T1, I84V mutant protease (Human immunodeficiency virus type 1 group M subtype B, UniProt P12497, I572V/Q495K).
T1 construct: the gene encoding the desired HIV-1 protease was subcloned into the heat-inducible pXC35 expression vector; made in house
More on the design: method as in Lockbaum et al. (ACS Infect Dis. 2019 Feb 8; 5 (2): 316–325). The settings on record: I84V drug-resistant protease variant; previously reported; ref Lockbaum et al. (ACS Infect Dis. 2019 Feb 8; 5 (2): 316–325); cited from earlier work.

Experiment [1] has as its system HIV-1 NL4-3 wild-type virus. The experiment is described as follows: Selection for resistance in CEMx174 culture with escalating inhibitor, start wild-type virus, Primer ID deep sequencing. The experiment is classed as cell-based. Particulars: passage 75, [PI] 5000 nM. On the procedure:
. The selection experiments were performed under two separate starting conditions: first when the starting virus was generated from the NL4-3 clone (this clone closely approximates the clade B consensus for the protease amino acid sequence and will be referred to as ‘wild type’), then again when the starting virus was a mixture of 26 isogenic viruses each with a single mutation associated with drug resistance in the NL4-3 background. […]. For technical reasons, only five of the selections starting with the mixture of mutants reached an inhibitor concentration as high as 400 nM and are reported here (Figure 2—figure supplement 3).
Resistance mutations selected in the protease coding domain during the escalating selective pressure of increasing PI concentration were examined at various timepoints using a next-generation sequencing (NGS) protocol that included Primer ID with the MiSeq platform ([Zhou et al., 2015]). We first examined the sequence of the most abundant variant in each of the two selection schemes present at the highest inhibitor concentration reached (Figure 2A). For those selections that reached 5 μM, 8–14 mutations were present in the most abundant variant. Typically the next two most abundant variants in the population differed by a single amino acid, and on average the three most abundant variants in the 5 μM cultures accounted for 88% of the total viral population (Figure 2—source data 1). Evolution of resistance followed two pathways, one based on I50V and one based on I84V. In three cultures, V2wt, V5wt, and V2mut (which reached either 4 or 5 μM final drug concentration; V2wt indicates the virus pool selected with UMASS-2 starting with wild-type virus), these two mutations, I84V and I50V, became linked on the same genome (Figure 2A) showing they are not mutually exclusive; […].
An aliquot of 3 × 10^6 CEMx174 cells was incubated at 37°C for 2–3 hr with 250 µl of a virus stock generated from the HIV-1 infectious molecular clone pNL4-3. The culture volume was then brought to 10 ml with RPMI medium. […] After 48 hr and every 48 hr after, the cells were pelleted by centrifugation and 10 ml of fresh medium and inhibitors were added. When the culture had undergone extensive cytopathic effect (CPE) indicative of viral replication, the supernatant medium and the cells were harvested separately and stored at –80°C. The virus-containing supernatant was used to start the next round of infection, and after several rounds at the initial concentration, the inhibitor concentration was increased 1.5-fold at each subsequent round of virus passage.
We used the PID protocol to prepare MiSeq PID libraries with multiplexed primers. Viral RNA was extracted from plasma samples using the QIAamp viral RNA mini kit (QIAGEN, Hilden, Germany). Complementary DNA (cDNA) was synthesized using a cDNA primer mixture targeting protease (PR) with a block of random nucleotides in each cDNA primer serving as the PID, and SuperScript III RT (Thermo Fisher). After two rounds of bead purification of the cDNA, we amplified the cDNA using a mixture of a forward primer that targeted the upstream coding region, followed by a second round of PCR to incorporate the Illumina adaptor sequences. Gel-purified libraries were pooled and sequenced using the MiSeq 300 base paired-end sequencing protocol (Illumina). The sequencing covered the HIV-1 PR region (HXB2 2648-2914, 3001-3257).
We used the Illumina bcl2fastq pipeline for the initial processing and constructed template consensus sequences (TCSs) with TCS pipeline version 1.33 (https://github.com/SwanstromLab/PID) ([Zhou, 2019]). We then aligned TCSs to an HXB2 reference to remove sequences not at the targeted region or that had large deletions. We used the Entropy tool at LANL (https://www.hiv.lanl.gov/content/sequence/ENTROPY/entropy.html) to calculate entropy for each specimen. The sequencing data is available at NIH Sequencing Read Archive (SRA) under BioProject ID PRJNA853351.

The target in another experiment is T2, wild-type NL4-3 protease (Human immunodeficiency virus type 1 group M subtype B, UniProt P12497, Q495K).
T2 construct: the gene encoding the desired HIV-1 protease was subcloned into the heat-inducible pXC35 expression vector; made in house
More on the design: method as in Lockbaum et al. (ACS Infect Dis. 2019 Feb 8; 5 (2): 316–325). Particulars: previously reported, ref Lockbaum et al. (ACS Infect Dis. 2019 Feb 8, 5 (2): 316–325), read-out: Ki WT; cited from earlier work.

Experiment [2] concerns the target T3, I50V/A71V mutant protease (Human immunodeficiency virus type 1 group M subtype B, UniProt P12497, A559V/I538V/Q495K).
T3 construct: the gene encoding the desired HIV-1 protease was subcloned into the heat-inducible pXC35 expression vector; made in house
Also noted: method as in Lockbaum et al. (ACS Infect Dis. 2019 Feb 8; 5 (2): 316–325). The settings on record: I50V/A71V drug-resistant protease variant; previously reported; ref Lockbaum et al. (ACS Infect Dis. 2019 Feb 8; 5 (2): 316–325); cited from earlier work.

The subject of a further experiment is wild-type virus NL4-3. Put plainly: TZM infection assay (cell culture-based viral inhibition), wild-type virus. Also noted: species or system HIV-1. Particulars: Human immunodeficiency virus 1, NL43; wild-type NL4-3 virus; concentration at time of virus production reducing infectivity by 50%; TZM-bl readout. On the procedure: PI dilutions were prepared by taking 10 µM stocked and performing a fivefold serial dilution using RPMI media (final drug concentration is […]). One dilution of drug was added to each well of a 24-well plate and repeated so each virus would have a full set of dilutions. Viruses for the assay were made by seeding 3 × 10^6 CEM cells in a 24-well plate and incubating with 250 µl of virus at 37°C for 2–3 hr before bringing the culture to 10 ml with RPMI media. After 48 hr, the medium was changed and repeated every 48 hr after until the culture had undergone CPE. Infected CEM cells were collected and diluted so that 1 ml of cells could be plated in each well containing a unique drug dilution. Then 24 hr later the virus supernatant was collected from each well followed by filtering through a […] then placed in –80°C. Viruses were thawed and added to 96-well plates in triplicate. TZM-bl cells were collected and diluted to a concentration of 2 × 10^5 cells/ml, 100 µl were added on top of the pre-plated viruses. Plates were kept in 37°C, 5% CO2 in an incubator for 48 hr. After 48 hr, the cells in the plates were lysed by removing the medium, washing two times with 100 µl PBS, and then lysed with 1× lysis buffer (made from 5× Promega Firefly Lysis Buffer). Plates were frozen for at least 24 hr and then thawed for 2 hr before analyzing with Promega Firefly Luciferase Kit on a luminometer. Data was analyzed with Prism 7 to fit sigmoidal dose–response curves.

One may read the Ki as the dissociation constant of the complex between target and ligand, obtained from inhibition or displacement. One may read the EC50 as the concentration that produces a half-maximal response. Read a high EC50 as a less potent agent. As for `CC[C@H](C)CN(C[C@@H](O)[C@H](Cc1ccccc1)NC(=O)O[C@H]1CO[C@H]2OCC[C@H]21)S(=O)(=O)c1ccc(N)cc1` [UMASS-1], the Ki was 0.0261 ± 0.0037 nM on I84V mutant protease, less than 0.005 nM at wild-type NL4-3 protease and 0.11 ± 0.0088 nM in experiment [2]. The entries for the “Abundance of variant at the last time point” value in experiment [1] (variant 10I/16E/32I/33F/46I/54L/71V/76V/82I/84V), in experiment [1] (variant 10I/16E/32I/33F/46I/54L/71V/76V/82I/84V/91S) and in experiment [1] (variant 10I/32I/33F/46I/54L/71V/76V/82I/84V) were 55.4%, 6.2% and 21.9%, respectively. The EC50 in the experiment with wild-type virus NL4-3 stood at 5.9 ± 1 nM.
